Measurements from US10435402B2, “Bicyclic compounds, compositions and medicinal applications thereof” (Advinus Therapeutics Limited, priority 2015, dated 2019).

Target: T1, GAL4-DBD/RORγ-LBD (Homo sapiens, UniProt P51449)
T1 construct: expressed in transfected cells; host or cells: HEK293T
Experiment: RORγt transactivation reporter assay (GAL4-DBD/RORγ-LBD, luciferase read out)
Format: cell-based
Settings: HEK293T cells, GAL4-UAS luciferase reporter, overnight (18-24 hours) incubation
Description: RORγt Transactivation Reporter Assay Protocol: The inhibition of RORγt activity in cells was evaluated using a GAL4-UAS reporter system in HEK293T cells employing a luciferase read out. RORγt ligand binding domain (LBD) was cloned into the pFN26A (BIND) vector (Promega #[…]) containing yeast GAL4-DBD to form a RORγt LBD-GAL4 DBD fusion construct. This vector also contained a Renilla Luciferase reporter expressed under a SV40 promoter which was used as a control for transfection efficiency. A transcriptional reporter expression construct pGL4.35 (Promega #[…]) was used to monitor RORγt LBD-GAL4 activity. This construct contained nine repeats of GAL4 binding site/upstream activating sequence (UAS) controlling expression of a firefly luciferase reporter Luc2P. When transfected together in cells, the RORγ-LBD-DBD fusion protein drives expression of the luciferase reporter. For the assay, HEK293T cells were plated in a flat bottom 96 well plate at a density of 25,000 cells/well/100 ul of DMEM high glucose medium (Sigma D5648) containing 10% FBS and antibiotic. Cells were incubated overnight at 37 C/5% CO2. The next day, medium from the wells was removed and replaced with 30 ul of OptiMEM® (Invitrogen #31985070). 100 ng each of pBIND RORγ LBD-DBD and pGL4.35 reporter plasmids was transfected in HEK293T cells using Lipofectamine 2000 (Invitrogen #11668-019) where 10 ul of transfection complex was added to the each well. Control transfections were performed with an empty pF[…] vector and pGL4.35 vector. The transfected cells were incubated for 5 hours at 37 C/5% CO2. After incubation, 40 ul of DMEM high glucose medium without FBS, with antibiotic was added to each well. A 10 mM stock solution of test compound prepared in 100% DMSO was first diluted in DMSO and then in DMEM medium without FBS to give the required final compound concentration. Concentration of DMSO in the test compound solution was 0.4%. 20 ul of diluted compound solution was added to each well. Cells were incubated overnight (18-24 hours) at 37 C/5% CO2. The next day, luciferase assay was performed using the Dual Glo® Luciferase Assay System (Promega #E2940). Briefly, medium was removed from the wells and replaced with 40 ul 1× Passive Lysis Buffer (Promega #E1941). Plate was incubated at room temperature on a plate shaker at 1000 rpm for 40 min. After incubation, plate was centrifuged at 1000 rpm for 2 min. 20 ul of the lysate was transferred from each well to that of solid white half area 96 well plate (Costar #3693). Dual Glo® Reagent was thawed to room temperature and 20 ul was added to each well containing lysate. Plate was centrifuged at 1000 rpm/2 min and incubated at room temperature on a plate shaker at 600 rpm/25 min. Firefly luciferase signal was measured on a Tecan Safire2. After measurement, 20 ul of Dual Glo® Stop Glo® Reagent was added to each well. Plate was centrifuged at 1000 rpm/2 min and incubated at room temperature on a plate shaker at 600 rpm/25 min. Renilla luciferase signal was measured on Tecan Safire 2. IC50 values for test compounds were calculated from the normalized luciferase signal data using GraphPad Prism software.

T1 sequence (P51449 269-508 limits assumed): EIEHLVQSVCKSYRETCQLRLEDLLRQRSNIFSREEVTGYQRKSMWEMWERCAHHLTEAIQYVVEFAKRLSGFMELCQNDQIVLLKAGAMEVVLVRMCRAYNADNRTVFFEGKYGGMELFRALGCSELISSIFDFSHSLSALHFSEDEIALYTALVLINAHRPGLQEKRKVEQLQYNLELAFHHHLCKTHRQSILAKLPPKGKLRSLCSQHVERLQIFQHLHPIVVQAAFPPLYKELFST
T1 sequence (P04386 1-147 partner limits assumed): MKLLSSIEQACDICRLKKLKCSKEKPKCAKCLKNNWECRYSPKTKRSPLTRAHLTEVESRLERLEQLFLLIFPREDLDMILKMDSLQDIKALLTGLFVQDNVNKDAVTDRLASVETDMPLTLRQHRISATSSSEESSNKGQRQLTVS

Molecule | IC50
4-[3-(2,6-dibromobenzoyl)indolizin-1-yl]benzoic acid [Example A-53] | < 5 µM
4-[3-(2,6-dichloro-3-fluoro-benzoyl)-5,6,7,8-tetrahydroindolizin-1-yl]benzoic acid [Example H-3] | > 5 µM
4-[3-(2,6-dichloro-3-fluoro-benzoyl)indolizin-1-yl]-N,N-dimethyl-benzamide [Example F-2] | > 5 µM
4-[3-(2,6-dichlorobenzoyl)-6-(4H-1,2,4-triazol-3-yl)indolizin-1-yl]benzoic acid [Example D-10] | < 0.5 µM
4-[3-(2,6-dichlorobenzoyl)-6-(methylcarbamoyl)indolizin-1-yl]benzoic acid [Example D-9] | < 5 µM
4-[3-(2,6-dichlorophenoxy)indolizin-1-yl]benzoic acid [Example E-3] | > 5 µM
4-[3-(2,6-difluorobenzoyl)indolizin-1-yl]benzoic acid [Example A-37] | < 0.5 µM
4-[3-(2-chloro-6-fluoro-benzoyl)indolizin-1-yl]benzoic acid [Example A-28] | < 0.5 µM
4-[3-(2-chloro-6-methyl-benzoyl)-5,6,7,8-tetrahydroindolizin-1-yl]benzoic acid [Example H-5] | < 0.5 µM
4-[3-[2-chloro-6-(trifluoromethyl)benzoyl]-6-(pyrrolidine-1-carbonyl)indolizin-1-yl]benzoic acid [Example D-12] | < 0.5 µM
4-[6-carbamoyl-3-(2,6-dichlorobenzoyl)indolizin-1-yl]benzoic acid [Example D-13] | < 5 µM
O=C(O)c1ccc(-c2cc(C(=O)c3c(Cl)cccc3Cl)n3ccccc23)cn1 [Example A-10, 5-[3-(2,6-dichlorobenzoyl)indolizin-1-yl]pyridine-2-carboxylic acid] | > 5 µM
CCOC(=O)c1ccc(-c2cc(C(=O)c3c(F)cccc3Cl)n3ccccc23)cc1 [Example A-24, ethyl 4-[3-(2-chloro-6-fluoro-benzoyl)indolizin-1-yl]benzoate] | < 0.5 µM
O=C(O)c1ccc(-c2cc(C(=O)c3c(Cl)cccc3Cl)n3cc(F)ccc23)cc1 [Example A-26, 4-[3-(2,6-dichlorobenzoyl)-6-fluoro-indolizin-1-yl]benzoic acid] | < 0.5 µM
O=C(O)c1ccc(-c2cc(C(=O)c3c(F)cccc3Cl)n3ccccc23)c(F)c1 [Example A-27, 4-[3-(2-chloro-6-fluoro-benzoyl)indolizin-1-yl]-3-fluoro-benzoic acid] | < 0.5 µM
O=C(O)c1ccc(-c2cc(C(=O)c3c(Cl)cccc3C3CC3)n3ccccc23)c(F)c1 [Example A-29, 4-[3-(2-chloro-6-cyclopropyl-benzoyl)indolizin-1-yl]-3-fluoro-benzoic acid] | < 0.5 µM
CCOC(=O)c1ccc(-c2cc(C(=O)c3c(Cl)cccc3C3CC3)n3ccccc23)c(F)c1 [Example A-30, ethyl 4-[3-(2-chloro-6-cyclopropyl-benzoyl)indolizin-1-yl]-3-fluoro-benzoate] | < 0.5 µM

The remaining lines, values ahead:

IC50 | Molecule
< 0.5 µM | CCOC(=O)c1ccc(-c2cc(C(=O)c3c(Cl)cccc3C(F)(F)F)n3ccccc23)cc1 [Example A-1, Ethyl 4-[3-[2-chloro-6-(trifluoromethyl)benzoyl]indolizin-1-yl]benzoate]
< 0.5 µM | O=C(O)c1ccc(-c2cc(C(=O)c3c(Cl)cccc3C(F)(F)F)n3ccccc23)cc1 [Example A-2, 4-[3-[2-chloro-6-(trifluoromethyl)benzoyl]indolizin-1-yl]benzoic acid]
< 0.5 µM | O=C(O)c1ccc(-c2cc(C(=O)c3c(Cl)cccc3Cl)n3ccccc23)c(F)c1 [Example A-3, 4-[3-(2,6-dichlorobenzoyl)indolizin-1-yl]-3-fluoro-benzoic acid]
< 0.5 µM | COC(=O)c1ccc(-c2cc(C(=O)c3c(Cl)cccc3Cl)n3ccccc23)c(F)c1 [Example A-4, methyl 4-[3-(2,6-dichlorobenzoyl)indolizin-1-yl]-3-fluoro-benzoate]
< 0.5 µM | COC(=O)c1ccc(-c2cc(C(=O)c3c(F)cccc3F)n3ccccc23)c(F)c1 [Example A-5, methyl 4-[3-(2,6-difluorobenzoyl)indolizin-1-yl]-3-fluoro-benzoate]
< 0.5 µM | CCOC(=O)c1ccc(-c2cc(C(=O)c3c(Cl)cccc3Cl)n3ccccc23)cc1 [Example A-6, ethyl 4-[3-(2,6-dichlorobenzoyl)indolizin-1-yl]benzoate]
< 0.5 µM | COC(=O)c1cc(F)c(-c2cc(C(=O)c3c(Cl)cccc3Cl)n3ccccc23)c(F)c1 [Example A-7, methyl 4-[3-(2,6-dichlorobenzoyl)indolizin-1-yl]-3,5-difluoro-benzoate]
< 0.5 µM | O=C(O)c1ccc(-c2cc(C(=O)c3c(Cl)cccc3Cl)n3ccccc23)cc1 [Example A-8, 4-[3-(2,6-dichlorobenzoyl)indolizin-1-yl]benzoic acid]
< 0.5 µM | O=C(O)c1cc(F)c(-c2cc(C(=O)c3c(Cl)cccc3Cl)n3ccccc23)c(F)c1 [Example A-9, 4-[3-(2,6-dichlorobenzoyl)indolizin-1-yl]-3,5-difluoro-benzoic acid]
< 0.5 µM | COC(=O)c1ccc(-c2cc(C(=O)c3c(Cl)cccc3C(F)(F)F)n3ccccc23)c(F)c1 [Example A-11, methyl 4-[3-[2-chloro-6-(trifluoromethyl)benzoyl]indolizin-1-yl]-3-fluoro-benzoate]
< 0.5 µM | O=C(O)c1ccc(-c2cc(C(=O)c3c(Cl)cccc3C(F)(F)F)n3ccccc23)c(F)c1 [Example A-12, 4-[3-[2-chloro-6-(trifluoromethyl)benzoyl]indolizin-1-yl]-3-fluoro-benzoic acid]
< 0.5 µM | COC(=O)c1ccc(-c2cc(C(=O)c3c(C)cccc3Cl)n3ccccc23)c(F)c1 [Example A-13, methyl 4-[3-(2-chloro-6-methyl-benzoyl)indolizin-1-yl]-3-fluoro-benzoate]
< 0.5 µM | CCOC(=O)c1ccc(-c2cc(C(=O)c3c(C)cccc3Cl)n3ccccc23)cc1 [Example A-14, ethyl 4-[3-(2-chloro-6-methyl-benzoyl)indolizin-1-yl]benzoate]
< 0.5 µM | Cc1cccc(Cl)c1C(=O)c1cc(-c2ccc(C(=O)O)cc2F)c2ccccn12 [Example A-15, 4-[3-(2-chloro-6-methyl-benzoyl)indolizin-1-yl]-3-fluoro-benzoic acid]
< 0.5 µM | Cc1cccc(Cl)c1C(=O)c1cc(-c2ccc(C(=O)O)cc2)c2ccccn12 [Example A-16, 4-[3-(2-chloro-6-methyl-benzoyl)indolizin-1-yl]benzoic acid]
< 0.5 µM | COC(=O)c1ccc(-c2cc(C(=O)c3c(Cl)ccc(F)c3Cl)n3ccccc23)c(F)c1 [Example A-17, methyl 4-[3-(2,6-dichloro-3-fluoro-benzoyl)indolizin-1-yl]-3-fluoro-benzoate]
< 0.5 µM | O=C(O)c1ccc(-c2cc(C(=O)c3c(Cl)ccc(F)c3Cl)n3ccccc23)c(F)c1 [Example A-18, 4-[3-(2,6-dichloro-3-fluoro-benzoyl)indolizin-1-yl]-3-fluoro-benzoic acid]
< 0.5 µM | O=C(O)c1ccc(-c2cc(C(=O)c3c(Cl)ccc(F)c3Cl)n3ccccc23)cc1 [Example A-19, 4-[3-(2,6-dichloro-3-fluoro-benzoyl)indolizin-1-yl]benzoic acid]
< 0.5 µM | CCOC(=O)c1ccc(-c2cc(C(=O)c3c(Cl)cccc3Cl)n3cccc(F)c23)cc1 [Example A-21, ethyl 4-[3-(2,6-dichlorobenzoyl)-8-fluoro-indolizin-1-yl]benzoate]
< 0.5 µM | COC(=O)c1ccc(-c2cc(C(=O)c3c(Cl)cccc3Cl)n3cccc(F)c23)c(F)c1 [Example A-22, methyl 4-[3-(2,6-dichlorobenzoyl)-8-fluoro-indolizin-1-yl]-3-fluoro-benzoate]
< 0.5 µM | O=C(O)c1ccc(-c2cc(C(=O)c3c(Cl)cccc3Cl)n3cccc(F)c23)cc1 [Example A-23, 4-[3-(2,6-dichlorobenzoyl)-8-fluoro-indolizin-1-yl]benzoic acid]
